Measured values published in article PMC6968383, “Design, synthesis, in vitro and in vivo evaluation of benzylpiperidine-linked 1,3-dimethylbenzimidazolinones as cholinesterase inhibitors against Alzheimer’s disease” (Journal of Enzyme Inhibition and Medicinal Chemistry, 2019).
Where two headings read alike, the source gives them in different places.

Assays:
liver = test: Liver histopathological study (HE staining); details: 36 h after administration, compared to control group
Source text: Figure 7. […] HE staining, original magnification ×200.

[1] = assay type: in vivo; details: serum, tacrine 30 mg kg−1, mean ± SEM n = 6
Protocol: . Heparinised serum was obtained after the treatment of 15b and 15j at 8, 22, and 36 h, respectively. The serum levels of ALT and AST are directly proportional to the severity of the liver damage. […]

[2] = tested on: scopolamine-induced cognition impairment in ICR mice; test: Morris water maze test, scopolamine-induced cognition impairment; assay type: in vivo; details: oral 15 mg kg−1, scopolamine 1 mg kg−1 ip, probe trial on sixth day, mean ± SEM n = 6
Protocol: The test included 5 days of learning and memory training and a probe trial on the sixth day.
Scopolamine hydrobromide was supplied by Aladdin Reagents (H1507073, Shanghai, China).
Cognitive function was evaluated by the Morris water maze analysis-management system (SMART 3.0, Panlab, Madrid, Spain), according to the method previously described[30].The maze was placed in a lit room with visual cues at 25 °C. An escape platform (10 cm diameter) was located in the centre of one quadrant of the circular pool (120 cm diameter, 60 cm height) with a depth of 40 cm water. The behavioural study of each mouse included 5 days of learning and memory training and a probe trial on day 6. The animal starting positions faced to the pool wall, and were pseudorandomised for each trial. For the cognitive evaluation, each mouse was individually evaluated on both visible-platform (days 1–2) and hidden-platform (days 3–5) versions of the water maze. All mice received nonspatial pretraining during the first two training days, which prepared them for the subsequent spatial learning test. During the two days, mice were trained to find the platform that was labelled by a small flag (5 cm tall). The hidden platform version was used to determine the retention of memory to find the platform. During the hidden-platform training trials, the escape platform was placed 1 cm below the surface of the water. On each day, the animal was subjected to two trials, each of which lasted for 90 s. The time for the mouse to find the platform (a successful escape) was recorded. […] On the last day (day 6), the platform was removed from its location and the animals were given a probe trial in which they had 90 s to search for the platform. The time taken to reach the missing platform and the number of times the animals crossed the platform location were recorded.
Data for the time of escape latency, the trajectory travelled, and the number of platform location crossings were recorded by SMART 3.0, Panlab, Madrid, Spain and processed by GraphPad Prism 6.0.

[3] = molecular target: T1, AChE (EC 3.1.1.7) from electric eel (Electrophorus electricus, UniProt O42275); test: biochemical; assay type: biochemical; details: for SI (selectivity index = AChE IC50/BChE IC50): eeAChE IC50 / eqBChE IC50; for IC50: eeAChE, mean ± SEM of triplicate independent experiments, read-out: AChE IC50
T1 construct: purchased Sigma-Aldrich
T1 sequence (O42275 24-633): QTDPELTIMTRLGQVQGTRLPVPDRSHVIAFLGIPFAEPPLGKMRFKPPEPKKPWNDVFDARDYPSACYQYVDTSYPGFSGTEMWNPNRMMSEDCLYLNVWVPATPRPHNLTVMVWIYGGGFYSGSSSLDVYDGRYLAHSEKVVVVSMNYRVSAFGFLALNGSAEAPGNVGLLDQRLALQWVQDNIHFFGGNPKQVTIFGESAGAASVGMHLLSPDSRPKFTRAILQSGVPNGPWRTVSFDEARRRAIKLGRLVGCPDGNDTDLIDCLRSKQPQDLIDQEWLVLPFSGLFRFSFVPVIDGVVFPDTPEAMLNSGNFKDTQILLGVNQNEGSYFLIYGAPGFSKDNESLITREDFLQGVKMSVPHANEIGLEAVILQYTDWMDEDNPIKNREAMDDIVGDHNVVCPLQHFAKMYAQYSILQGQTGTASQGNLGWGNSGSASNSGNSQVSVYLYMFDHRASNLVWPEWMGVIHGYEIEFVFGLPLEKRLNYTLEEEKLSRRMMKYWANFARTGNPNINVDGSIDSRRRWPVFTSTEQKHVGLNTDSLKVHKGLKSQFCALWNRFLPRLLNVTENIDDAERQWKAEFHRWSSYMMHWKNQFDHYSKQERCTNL
Protocol: (§1) The data were expressed as IC50 values (Table 1).
(§2) The inhibitory activities of the target compounds towards AChE (from Electrophorus electricus (electric eeAChE, Sigma-Aldrich) and horse serum BChE (eqBChE, Sigma-Aldrich) or human AChE – huAChE; human BuChE – huBuChE (huAChE, huBuChE, Sigma-Aldrich) were measured by Ellman’s method. In 96-well plates, a mixture of phosphate buffer (0.1 M, pH 8.0, […]), 5,5′-dithiobis-2-nitrobenzoic acid (DTNB, 60 µL), acetylcholinestrase or butyrylcholinesterase (20 µL, 5 IU/mL) and different concentration of the compound solution (30 µL) was pre-incubated for 5 min followed by the addition of the substrate (acetylthiocholine iodide or butyrylthiocholine iodide, 20 µL). […] The measurement of each concentration for each compound was detected in triplicate. GraphPad Prism 6.0 (GraphPad Software, Inc., La Jolla, CA) was used for data processing. The inhibition curve was fitted by plotting percentage enzyme activity (100% for the reference) versus the logarithm of the concentration of tested compound. The half-maximal inhibitory concentration (IC50) values were calculated according to the inhibition curve and the data were shown in the layout of mean ± SEM by GraphPad Prism 6.0.

[4] = molecular target: T2, BChE (EC 3.1.1.8) from horse serum (Equus caballus, UniProt P81908); test: biochemical; details: eqBChE; mean ± SEM of triplicate independent experiments; read-out: BChE IC50
T2 construct: horse serum BChE (eqBChE, Sigma-Aldrich); purchased Sigma-Aldrich; host or cells: horse serum
T2 sequence (P81908 whole entry): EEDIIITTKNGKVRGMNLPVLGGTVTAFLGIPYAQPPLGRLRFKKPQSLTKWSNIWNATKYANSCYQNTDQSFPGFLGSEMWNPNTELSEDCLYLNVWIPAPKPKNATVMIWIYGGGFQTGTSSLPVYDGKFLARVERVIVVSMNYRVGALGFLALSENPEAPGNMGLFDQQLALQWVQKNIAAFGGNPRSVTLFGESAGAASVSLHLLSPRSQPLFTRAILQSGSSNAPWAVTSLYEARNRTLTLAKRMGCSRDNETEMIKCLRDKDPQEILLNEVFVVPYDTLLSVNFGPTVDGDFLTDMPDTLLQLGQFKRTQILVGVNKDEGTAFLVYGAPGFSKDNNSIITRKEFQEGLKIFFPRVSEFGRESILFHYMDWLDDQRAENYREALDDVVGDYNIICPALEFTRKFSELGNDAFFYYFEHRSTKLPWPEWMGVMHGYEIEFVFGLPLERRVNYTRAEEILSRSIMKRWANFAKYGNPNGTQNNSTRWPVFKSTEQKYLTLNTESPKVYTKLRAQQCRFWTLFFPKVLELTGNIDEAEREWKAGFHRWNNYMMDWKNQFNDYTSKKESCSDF
Protocol: as §1, §2

Row | SMILES | morphologic changes in liver (liver) | ALT ([1]; 8 h after treatment) [U/L] | AST ([1]; 8 h after treatment) [U/L] | ALT ([1]; 22 h after treatment) [U/L] | AST ([1]; 22 h after treatment) [U/L] | ALT ([1]; 36 h after treatment) [U/L] | AST ([1]; 36 h after treatment) [U/L] | Distance to target [2] [cm] | Latency to target [2] [s] | SI (selectivity index = AChE IC50/BChE IC50) [3] | IC50 [3] [µM] | IC50 [4] [µM]
1 | Nc1c2c(nc3ccccc13)CCCC2 [Tacrine] | did not result in remarkable morphologic changes in liver | 32.7 ± 1.7 | 95.1 ± 9.5 | 31.7 ± 1.2 | 108.9 ± 6.1 | 35.8 ± 6.7 | 110.4 ± 9.4 | 310.01 ± 9.54 | 12.06 ± 0.37 |  |  | 
2 | Cn1c(=O)n(C)c2cc(S(=O)(=O)NCC3CCN(Cc4cccc(F)c4)CC3)ccc21 [Compound 15f, N-((1–(3-fluorobenzyl)piperidin-4-yl)methyl)-1,3-dimethyl-2-oxo-2,3-dihydro-1H-benzo[d]imidazole-5-sulphonamide] |  |  |  |  |  |  |  |  |  | 0.75 | 1.04 ± 0.48 | 1.37 ± 0.74
3 | Cn1c(=O)n(C)c2cc(C(=O)NCC3CCN(Cc4ccc(F)cc4)CC3)ccc21 [Compound 9j, N-((1–(4-fluorobenzyl)piperidin-4-yl)methyl)-1,3-dimethyl-2-oxo-2,3-dihydro-1H-benzo[d]imidazole-5-carboxamide] |  |  |  |  |  |  |  |  |  | 1.27 | 4.7 ± 2.01 | 3.71 ± 1.88
4 | Cn1c(=O)n(C)c2cc(S(=O)(=O)NCC3CCN(Cc4ccccc4)CC3)ccc21 [Compound 15a, N-((1-benzylpiperidin-4-yl)methyl)-1,3-dimethyl-2-oxo-2,3-dihydro-1H-benzo[d]imidazole-5-sulphonamide] |  |  |  |  |  |  |  |  |  | 0.84 | 0.38 ± 0.08 | 0.45 ± 0.02
